“And” between values parts separate entries of the source, which are not always exact repeats. Identical values can stand only once. Toxic doses and inconclusive results are not listed. Cut-off read from the data, not from the text of the source: active = T/C of 150% or more; inactive = T/C below 125%.
Tested on: L1210 leukemia ip in BDF1 mice, survival T/C
Assay: NCI In Vivo Anticancer Drug Screen. Data for tumor model L1210 Leukemia (intraperitoneal) in B6D2F1 (BDF1) mice
Details: endpoint: mean survival time, higher = longer survival
Procedure, shortened: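 Mice bearing the transplanted tumor received compound or vehicle. Survival of the treated group was divided by that of the vehicle-treated control group to give the ratio.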

[1] = dose: 100.0 mg/kg/injection, schedule: Q04DX003 (ip), vehicle: Klucel (hydroxypropylcellulose) (HPC)
[2] = dose: 200.0 mg/kg/injection, schedule: Q04DX003 (ip), vehicle: Klucel (hydroxypropylcellulose) (HPC)
[3] = dose: 400.0 mg/kg/injection, schedule: Q04DX003 (ip), vehicle: Klucel (hydroxypropylcellulose) (HPC)
[4] = dose: 100.0 mg/kg/injection, schedule: Q04DX002 (ip), vehicle: saline with Tween-80
[5] = dose: 100.0 mg/kg/injection, schedule: Q01DX001 (ip), vehicle: saline
[6] = dose: 200.0 mg/kg/injection, schedule: Q01DX001 (ip), vehicle: saline
[7] = dose: 400.0 mg/kg/injection, schedule: Q01DX001 (ip), vehicle: saline
[8] = dose: 100.0 mg/kg/injection, schedule: Q04DX003 (ip), vehicle: saline
[9] = dose: 200.0 mg/kg/injection, schedule: Q04DX003 (ip), vehicle: saline
[10] = dose: 100.0 mg/kg/injection, schedule: Q01DX009 (ip), vehicle: Klucel (hydroxypropylcellulose) (HPC)
[11] = dose: 200.0 mg/kg/injection, schedule: Q01DX009 (ip), vehicle: Klucel (hydroxypropylcellulose) (HPC)
[12] = dose: 400.0 mg/kg/injection, schedule: Q01DX009 (ip), vehicle: Klucel (hydroxypropylcellulose) (HPC)
[13] = dose: 100.0 mg/kg/injection, schedule: Q01DX009 (ip), vehicle: saline
[14] = dose: 200.0 mg/kg/injection, schedule: Q01DX009 (ip), vehicle: saline
[15] = dose: 400.0 mg/kg/injection, schedule: Q04DX003 (ip), vehicle: saline

Measured: T/C

O=C1N(Br)C(=O)C(c2ccc(Cl)cc2)(c2ccc(Cl)cc2)N1Br
inactive: dose: 15.0 mg/kg/injection, schedule: Q01DX015 (ip), vehicle: carboxymethylcellulose (CMC) 89 % of control | dose: 30.0 mg/kg/injection, schedule: Q01DX015 (ip), vehicle: carboxymethylcellulose (CMC) 93 % of control | dose: 60.0 mg/kg/injection, schedule: Q01DX015 (ip), vehicle: carboxymethylcellulose (CMC) 88 % of control | dose: 100.0 mg/kg/injection, schedule: Q01DX001 (ip), vehicle: carboxymethylcellulose (CMC) 95 % of control | dose: 100.0 mg/kg/injection, schedule: Q01DX009 (ip), vehicle: saline sonified 113 % of control | [1] 99 % of control | dose: 120.0 mg/kg/injection, schedule: Q01DX015 (ip), vehicle: carboxymethylcellulose (CMC) 93 % of control | dose: 200.0 mg/kg/injection, schedule: Q01DX001 (ip), vehicle: carboxymethylcellulose (CMC) 90 % of control | dose: 200.0 mg/kg/injection, schedule: Q01DX009 (ip), vehicle: saline sonified 106 % of control | [2] 94 % of control | dose: 240.0 mg/kg/injection, schedule: Q01DX015 (ip), vehicle: carboxymethylcellulose (CMC) 95 % of control | dose: 360.0 mg/kg/injection, schedule: Q01DX015 (ip), vehicle: carboxymethylcellulose (CMC) 98 % of control | dose: 400.0 mg/kg/injection, schedule: Q01DX001 (ip), vehicle: carboxymethylcellulose (CMC) 104 % of control | dose: 400.0 mg/kg/injection, schedule: Q01DX009 (ip), vehicle: saline sonified 99 % of control | [3] 100 % of control

Oc1ccc2ccccc2c1N=Nc1ccccn1
inactive: dose: 25.0 mg/kg/injection, schedule: Q04DX002 (ip), vehicle: saline with Tween-80 101 % of control | dose: 50.0 mg/kg/injection, schedule: Q04DX002 (ip), vehicle: saline with Tween-80 98 % of control | [4] 95 % of control

CCCCOC(=O)CC(C(=O)OCCCC)S(=O)(=O)O (centres undefined)
inactive: [5] 96 % of control | [6] 104 % of control | [7] 101 % of control

CC(=O)Nc1ccc(C=NCCN=Cc2ccc(NC(C)=O)cc2)cc1
inactive: [1] 97 % of control | [2] 88 % of control | [3] 88 % of control

Cc1cnc(C)c(C(O)c2ccccc2)n1 (centres undefined)
inactive: dose: 50.0 mg/kg/injection, schedule: Q01DX001 (ip), vehicle: saline 98 % of control | [5] 98 % of control | [6] 112 % of control | [7] 106 % of control

C=CC[N+](C)(C)C
inactive: dose: 75.0 mg/kg/injection, schedule: Q01DX001 (ip), vehicle: saline 101 % of control

OC1CCCCC1Sc1ccccc1 (centres undefined)
inactive: [4] 117 % of control | dose: 200.0 mg/kg/injection, schedule: Q04DX002 (ip), vehicle: saline with Tween-80 111 % of control | dose: 400.0 mg/kg/injection, schedule: Q04DX002 (ip), vehicle: saline with Tween-80 105 % of control

O=C1Nc2ccccc2CS1
inactive: [5] 100 % of control | [6] 97 % of control | [7] 94 % of control

O=C([O-])C1CCCCC1[I+]c1ccccc1 (centres undefined)
inactive: [8] 100 % of control | [9] 98 % of control

CCOC(=O)c1ccc(NC(=O)Nc2ccc(F)cc2)cc1
inactive: [10] 90 % of control | [11] 90 % of control

O=C(O)C1C2C=CC(C2)C1C(=O)O.[Cu+2] (centres undefined)
inactive: dose: 3.12 mg/kg/injection, schedule: Q01DX009 (ip), vehicle: Klucel (hydroxypropylcellulose) (HPC) 95 % of control | dose: 6.25 mg/kg/injection, schedule: Q01DX009 (ip), vehicle: Klucel (hydroxypropylcellulose) (HPC) 96 % of control | dose: 12.5 mg/kg/injection, schedule: Q01DX009 (ip), vehicle: Klucel (hydroxypropylcellulose) (HPC) 101 % of control | dose: 12.5 mg/kg/injection, schedule: Q04DX003 (ip), vehicle: Klucel (hydroxypropylcellulose) (HPC) 103 % of control | dose: 18.0 mg/kg/injection, schedule: Q01DX009 (ip), vehicle: Klucel (hydroxypropylcellulose) (HPC) 101 % of control | dose: 28.0 mg/kg/injection, schedule: Q01DX009 (ip), vehicle: Klucel (hydroxypropylcellulose) (HPC) 93 % of control

CC(=O)N[C@H](CO)[C@H](O)c1ccc([N+](=O)[O-])cc1
inactive: dose: 100.0 mg/kg/injection, schedule: Q04DX003 (ip), vehicle: saline sonified 98 % of control | dose: 200.0 mg/kg/injection, schedule: Q04DX003 (ip), vehicle: saline sonified 104 % of control | dose: 400.0 mg/kg/injection, schedule: Q04DX003 (ip), vehicle: saline sonified 103 % of control

COc1ccccc1C1OCC(C)(C)CO1
inactive: [10] 90 % of control | [1] 109 % of control | [11] 95 % of control | [2] 103 % of control | [12] 92 % of control | [3] 108 % of control

CCOC(=O)C(Cc1ccccc1[N+](=O)[O-])C(=O)OCC
inactive: [5] 103 % of control | [13] 103 % of control and 89 % of control | dose: 100.0 mg/kg/injection, schedule: Q04DX002 (ip), vehicle: saline 112 % of control and 113 % of control | [8] 94 % of control | [6] 101 % of control | [14] 93 % of control and 105 % of control | dose: 200.0 mg/kg/injection, schedule: Q04DX002 (ip), vehicle: saline 108 % of control | [9] 103 % of control | [7] 100 % of control | dose: 400.0 mg/kg/injection, schedule: Q01DX009 (ip), vehicle: saline 96 % of control and 105 % of control | dose: 400.0 mg/kg/injection, schedule: Q04DX002 (ip), vehicle: saline 102 % of control and 108 % of control | [15] 103 % of control

O=S(=O)(Oc1ccc(Cl)cc1Cl)c1ccc(Cl)cc1
inactive: dose: 75.0 mg/kg/injection, schedule: Q04DX003 (ip), vehicle: Klucel (hydroxypropylcellulose) (HPC) 93 % of control | dose: 150.0 mg/kg/injection, schedule: Q04DX003 (ip), vehicle: Klucel (hydroxypropylcellulose) (HPC) 101 % of control | dose: 300.0 mg/kg/injection, schedule: Q04DX003 (ip), vehicle: Klucel (hydroxypropylcellulose) (HPC) 90 % of control

CCCCCCCCCCCCCCOC(=O)Cl
inactive: [10] 101 % of control | [11] 97 % of control | [12] 86 % of control

O=S(=O)(Nc1c(Cl)c(Cl)c(NS(=O)(=O)c2ccccc2)c(Cl)c1Cl)c1ccccc1
inactive: [10] 103 % of control | [11] 111 % of control | [12] 103 % of control

Cc1ccc(C)c(NS(=O)(=O)c2cc(Cl)c(Cl)cc2Cl)c1
inactive: [10] 98 % of control | [11] 96 % of control

O=C(O)c1cccc2nc3ccccc3nc12
inactive: dose: 100.0 mg/kg/injection, schedule: Q04DX002 (ip), vehicle: Klucel (hydroxypropylcellulose) (HPC) 100 % of control | dose: 200.0 mg/kg/injection, schedule: Q04DX002 (ip), vehicle: Klucel (hydroxypropylcellulose) (HPC) 102 % of control | dose: 400.0 mg/kg/injection, schedule: Q04DX002 (ip), vehicle: Klucel (hydroxypropylcellulose) (HPC) 96 % of control

CN(C)P1(=O)OCCN1N (centres undefined)
inactive: dose: 50.0 mg/kg/injection, schedule: Q01DX009 (ip), vehicle: saline 105 % of control | [13] 117 % of control | [8] 104 % of control | [14] 103 % of control | [9] 96 % of control

CCOC1(OCC)CC2C(=O)CCCC21OC(C)=O (centres undefined)
inactive: dose: 75.0 mg/kg/injection, schedule: Q04DX002 (ip), vehicle: saline 111 % of control | dose: 150.0 mg/kg/injection, schedule: Q04DX002 (ip), vehicle: saline 105 % of control | dose: 300.0 mg/kg/injection, schedule: Q04DX002 (ip), vehicle: saline 101 % of control

COC(=O)/C=C(\C)Oc1cc(Cl)c(Cl)cc1Cl
inactive: dose: 100.0 mg/kg/injection, schedule: Q01DX009 (ip), vehicle: saline with Tween-80 94 % of control | dose: 200.0 mg/kg/injection, schedule: Q01DX009 (ip), vehicle: saline with Tween-80 97 % of control | dose: 400.0 mg/kg/injection, schedule: Q01DX009 (ip), vehicle: saline with Tween-80 97 % of control

CC1SC(N)=NC1=O (centres undefined)
inactive: [10] 94 % of control | [8] 108 % of control | [11] 100 % of control | [9] 103 % of control | [12] 100 % of control | [15] 93 % of control

CCOC(=O)CN1C(=O)C(Cl)=C(Cl)C1=O
inactive: dose: 3.12 mg/kg/injection, schedule: Q01DX009 (ip), vehicle: saline with Tween-80 98 % of control | dose: 6.25 mg/kg/injection, schedule: Q01DX009 (ip), vehicle: saline with Tween-80 98 % of control | dose: 12.5 mg/kg/injection, schedule: Q01DX009 (ip), vehicle: saline with Tween-80 96 % of control

COc1ccccc1[N+](C)(C)C
inactive: [5] 102 % of control

COC(=O)C1=C(N)OC(C)(C)C1c1ccc(Cl)cc1 (centres undefined)
inactive: [5] 100 % of control | [6] 94 % of control | [7] 97 % of control

Reference: PubChem BioAssay AID248 (DTP/NCI, 2004)
